How the values were obtained:
C6 cells = assay: In vitro specific binding to C6 cells (block with excess non-labeled peptide); assay type: cell-based, rat; conditions: 4 h
Procedure: The specific binding of the radiopeptides to C6 cells was evaluated in 12-well adherent plates, containing 2.0 × 10^5 cells per well. For the specific binding study (unblock), supplemented DMEM-F12 medium containing 1.66 nmol of the [^131I]I-GRGDYV or 8.88 nmol of the [^99mTc]Tc(CO) 3-GRGDHV was added in the wells. On the other hand, for the non-specific binding study (block), an excess of 1000× of the respective non-radiolabeled peptide (competitor) was added to the supplemented DMEM-F12 medium containing the radiopeptide in each well. In both cases, the plates were incubated at 37 °C in a humidified atmosphere containing 5% CO2 for 4 h and then, the supernatant was removed. Each well was washed with PBS, which was joined to the respective supernatant. Finally, the cells were removed by trypsinization and the contents were placed in microtubes. Each well was washed again with PBS, which was joined to the respective trypsinized cells. Cells and supernatants were counted in the above-mentioned automatic gamma counter.

[1] = Ex vivo biodistribution in normal (control) rats; set-up: species or system rat; conditions: gamma counter, mean ± SEM, n = 3
Procedure: Adult male Sprague Dawley rats (280–320 g) were maintained under controlled environmental conditions (12 h light-dark cycle; constant temperature 21 ± 2 °C), with free access to water and food. Tumorigenic glioblastoma cells were implanted in the right frontal cortex, following specific coordinates (referred to bregma): anteroposterior = 1.0 mm; lateral = 3.0 mm; depth = 5.0 mm. An aliquot of culture medium (10 µL) containing 1 × 10^6 C6 cells in suspension was injected slowly (1 µL/min) using a Hamilton syringe positioned on a stereotaxic surgery frame. In the control group, only the culture medium, without cells, was injected. An interval of 20 days after cell inoculation was allowed for tumor development.
The ex vivo biodistribution of each radiolabeled peptide (4 MBq; 0.2 mL) was evaluated at 15, 60, and 240 min after IV injection in control and tumor-bearing animals (n = 3 per group, per time point). The molar activities in this study were 0.68 and 16.2 MBq/nmol for the iodine and tricarbonyl-labeled peptides, respectively. Animals were deeply anesthetized and sacrificed at the corresponding biodistribution time point. Brain, spleen, heart, stomach, liver, lungs, kidneys, and blood were collected and weighed. Then, their radioactivities were determined using the above-mentioned automatic gamma counter. The radioactivity of each organ/tissue was evaluated as the percentage of injected dose per gram of organ/tissue (% ID/g), using the same injected dose activity as a standard.

[2] = RP-HPLC retention time (used as an indication of hydrophobicity); assay type: physicochemical; conditions: C18 column, 0.1% TFA:H2O (A), 60% acetonitrile/0.1% TFA:H2O (B), 5-95% B in 30 min, 1.0 mL/min; radioactivity detector (slight delay versus UV signal)
Procedure: RP-HPLC analyzes were performed on a Proeminence LC-20A system (Shimadzu; Kyoto, Japan). The column selected was Vydac C18 150 × 4.6 mm, with a particle size of 5 μm, a pore size of 300 Å. Chromatograms were performed at λ = 220 nm. Peaks were eluted using solvent systems composed of 0.1% TFA:H2O as solvent A and 60% acetonitrile/0.1% TFA:H2O as solvent B, on a gradient of 5–95% of solvent B at a flow rate of 1.0 mL·min^−1 for 30 min (n = 3).
RP-HPLC analyzes were performed on a 1290 Infinity II UHPLC system (Agilent Technologies; Saint Clair, CA, USA) fitted with a radioactivity detector (Eckert & Ziegler; Berlin, Germany) and Open Lab ECM data system (Agilent Technologies; Saint Clair, CA, USA) to confirm the yield and purity of both radiolabeled peptides. Analyzes were performed using a Phenomenex C18 column (150 × […]; 5 µm particle size; 300 Å pore size), detection at λ = 220 nm, using 0.1% TFA:H2O as solvent A and 60% acetonitrile/0.1% TFA:H2O as solvent B. A gradient of 5% to 95% of solvent B in 30 min was used at a flow rate of 1.0 mL·min^−1.

[3] = test system: normal rat brain homogenates (control); assay: Binding and internalization in brain homogenate of normal rats; conditions: 37 °C, n = 7
Procedure: An aliquot containing 2 × 10^6 C6 cells in supplemented DMEM-F12 culture medium (450 µL) was added to a vial and incubated with 10 nmol of the radiolabeled peptide at 37 °C with gentle agitation. The studies were evaluated at 1, 4 and 24 h (n = 7 for each time point). Then, the vials were centrifuged (604× g for 5 min). The radioactivities of the pellet and supernatant were separately evaluated using an automatic Wizard 3 2480 gamma counter (Perkin Elmer; Norwalk, CT, USA). The percentage of the bound fraction was calculated by Equation (1). (1) % bound fraction=Pellet radioactivity (cpm)/Pellet radioactivity (cpm)+supernatant radioactivity (cpm)×100
In the sequence, a second radioactivity determination was performed. For that, pellets were resuspended using 0.5 mL of acid buffer (0.2 M acetic acid in 0.5 M NaCl solution; pH 2.8) and maintained at room temperature for 5 min to remove the radiolabeled molecule attached to the cell membrane surface. Then, the vials were centrifuged (1677× g for 5 min). The pellet and supernatant were separated and their radioactivities were measured using the above-mentioned automatic gamma counter. The percentage of the internalized fraction of radiopeptides was estimated based on the ratio between the activity contained in the precipitate and the supernatant and calculated by Equation (2):(2) % internalized fraction=Pellet radioactivity (cpm)/Pellet radioactivity (cpm)+supernatant radioactivity (cpm)×100
Brain homogenates were prepared at the concentration of ~10 mg of wet tissue in 1000 µL of PBS (pH 7.4). Normal brain tissue (control) and tumor-bearing brain tissue (model) were used. A 25 µL aliquot (1.2 MBq/nmol) of each radiopeptide was added to 200 µL of freshly prepared homogenates (n = 7). The homogenates containing the radiolabeled peptides were incubated at 37 °C for 1, 4 and 24 h. Binding and internalization fractions were determined as described in Section 3.11.

[4] = normal rat brain homogenate, 24 h

## [^99mTc]Tc(CO)3-GRGDHV
C6 cells; 2.0 × 10^5 cells per well, 37 °C, 1.66 nmol [131I]I-GRGDYV or 8.88 nmol [99mTc]Tc(CO)3-GRGDHV, mean ± SD
  Binding to C6 cells (unblock): 0.61 ± 0.07%
C6 cells; 1000× excess of the respective non-radiolabeled peptide, 37 °C, mean ± SD
  Binding to C6 cells with excess of non-radiolabeled peptide (block): 0.33 ± 0.04%
C6 cells; block versus unblock, C6 cells
  Reduction of binding by excess of non-radiolabeled peptide: ~ 46%
[1]; 15 min after IV injection
  Ex vivo biodistribution, Blood: 11.30 ± 0.84 %ID/g
  Ex vivo biodistribution, Brain: 0.32 ± 0.01 %ID/g
  Ex vivo biodistribution, Heart: 5.14 ± 0.12 %ID/g
  Ex vivo biodistribution, Kidneys: 62.73 ± 2.17 %ID/g
  Ex vivo biodistribution, Liver: 6.06 ± 0.79 %ID/g
  Ex vivo biodistribution, Lungs: 7.76 ± 0.75 %ID/g
  Ex vivo biodistribution, Spleen: 3.41 ± 0.41 %ID/g
  Ex vivo biodistribution, Stomach: 3.09 ± 0.77 %ID/g
[1]; 60 min after IV injection
  Ex vivo biodistribution, Blood: 9.78 ± 0.52 %ID/g
  Ex vivo biodistribution, Brain: 0.28 ± 0.03 %ID/g
  Ex vivo biodistribution, Heart: 4.41 ± 0.23 %ID/g
  Ex vivo biodistribution, Kidneys: 51.04 ± 1.49 %ID/g
  Ex vivo biodistribution, Liver: 9.55 ± 1.34 %ID/g
  Ex vivo biodistribution, Lungs: 9.25 ± 1.65 %ID/g
  Ex vivo biodistribution, Spleen: 3.69 ± 0.60 %ID/g
  Ex vivo biodistribution, Stomach: 10.27 ± 0.59 %ID/g
[1]; 240 min after IV injection
  Ex vivo biodistribution, Blood: 11.12 ± 1.27 %ID/g
  Ex vivo biodistribution, Brain: 0.60 ± 0.04 %ID/g
  Ex vivo biodistribution, Heart: 4.84 ± 0.37 %ID/g
  Ex vivo biodistribution, Kidneys: 40.17 ± 0.90 %ID/g
  Ex vivo biodistribution, Liver: 12.26 ± 1.34 %ID/g
  Ex vivo biodistribution, Lungs: 8.59 ± 0.64 %ID/g
  Ex vivo biodistribution, Spleen: 4.93 ± 0.45 %ID/g
  Ex vivo biodistribution, Stomach: 10.78 ± 3.11 %ID/g
[2]
  RP-HPLC retention time (Rt), radiolabeled peptide: 17.80 min
[3]; normal rat brain homogenate (~10 mg/1000 µL PBS pH 7.4), 1 h
  Bound fraction: ~ 50%
[3]; normal rat brain homogenate, 1 h
  Internalized fraction: ~ 63%
[3]; [4]
  Bound fraction: ~ 65%
  Internalized fraction: ~ 87%

— paper PMC8876959, “Comparative Evaluation of Radiochemical and Biological Properties of ^131I- and [^99mTc]Tc(CO)3-Labeled RGD Analogues Planned to Interact with the αvβ3 Integrin Expressed in Glioblastoma” (Pharmaceuticals, 2022)
